Our source for the IC50 and remaining activity values is article PMC8213057, “Targeting ALK2: An Open Science Approach to Developing Therapeutics for the Treatment of Diffuse Intrinsic Pontine Glioma” (Journal of Medicinal Chemistry, 2020).

Where two headings read alike, the source gives them in different places.

In one data set the target is CYP3A4 (Homo sapiens, UniProt P08684). The conditions noted are these: human liver microsomes.
The target of another data set is CDK19/cyclin C (Homo sapiens, UniProt Q9BWU1). Kind of data set: biochemical. The conditions noted are these: read-out: % enzyme activity, 1 μM; Run 1, Run 2.
Sequence of CDK19/cyclin C (Q9BWU1 whole entry): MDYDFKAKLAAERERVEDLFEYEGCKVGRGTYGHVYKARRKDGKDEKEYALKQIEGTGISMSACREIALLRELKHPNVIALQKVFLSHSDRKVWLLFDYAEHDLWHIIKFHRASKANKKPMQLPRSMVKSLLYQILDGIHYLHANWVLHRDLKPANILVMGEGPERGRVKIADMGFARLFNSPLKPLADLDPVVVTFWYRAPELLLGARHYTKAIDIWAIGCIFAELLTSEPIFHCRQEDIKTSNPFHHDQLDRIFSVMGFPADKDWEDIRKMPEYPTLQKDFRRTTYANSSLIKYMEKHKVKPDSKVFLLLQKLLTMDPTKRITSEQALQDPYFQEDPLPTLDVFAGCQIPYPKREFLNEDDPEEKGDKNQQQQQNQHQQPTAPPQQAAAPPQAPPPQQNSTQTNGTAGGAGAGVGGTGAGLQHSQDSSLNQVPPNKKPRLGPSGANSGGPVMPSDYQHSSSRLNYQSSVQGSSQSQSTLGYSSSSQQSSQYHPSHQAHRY
Sequence of CDK19/cyclin C (P24863 whole entry partner): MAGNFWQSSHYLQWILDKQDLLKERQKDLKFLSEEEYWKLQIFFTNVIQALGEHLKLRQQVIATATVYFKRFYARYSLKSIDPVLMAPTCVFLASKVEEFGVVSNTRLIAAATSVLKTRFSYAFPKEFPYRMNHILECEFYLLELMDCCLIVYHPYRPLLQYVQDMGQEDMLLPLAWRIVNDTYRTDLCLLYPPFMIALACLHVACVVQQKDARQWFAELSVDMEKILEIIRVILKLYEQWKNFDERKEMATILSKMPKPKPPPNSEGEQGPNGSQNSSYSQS
Another data set concerns the target T1, EPHB2 (Homo sapiens, UniProt P29323).
T1 sequence (P29323 19-1055): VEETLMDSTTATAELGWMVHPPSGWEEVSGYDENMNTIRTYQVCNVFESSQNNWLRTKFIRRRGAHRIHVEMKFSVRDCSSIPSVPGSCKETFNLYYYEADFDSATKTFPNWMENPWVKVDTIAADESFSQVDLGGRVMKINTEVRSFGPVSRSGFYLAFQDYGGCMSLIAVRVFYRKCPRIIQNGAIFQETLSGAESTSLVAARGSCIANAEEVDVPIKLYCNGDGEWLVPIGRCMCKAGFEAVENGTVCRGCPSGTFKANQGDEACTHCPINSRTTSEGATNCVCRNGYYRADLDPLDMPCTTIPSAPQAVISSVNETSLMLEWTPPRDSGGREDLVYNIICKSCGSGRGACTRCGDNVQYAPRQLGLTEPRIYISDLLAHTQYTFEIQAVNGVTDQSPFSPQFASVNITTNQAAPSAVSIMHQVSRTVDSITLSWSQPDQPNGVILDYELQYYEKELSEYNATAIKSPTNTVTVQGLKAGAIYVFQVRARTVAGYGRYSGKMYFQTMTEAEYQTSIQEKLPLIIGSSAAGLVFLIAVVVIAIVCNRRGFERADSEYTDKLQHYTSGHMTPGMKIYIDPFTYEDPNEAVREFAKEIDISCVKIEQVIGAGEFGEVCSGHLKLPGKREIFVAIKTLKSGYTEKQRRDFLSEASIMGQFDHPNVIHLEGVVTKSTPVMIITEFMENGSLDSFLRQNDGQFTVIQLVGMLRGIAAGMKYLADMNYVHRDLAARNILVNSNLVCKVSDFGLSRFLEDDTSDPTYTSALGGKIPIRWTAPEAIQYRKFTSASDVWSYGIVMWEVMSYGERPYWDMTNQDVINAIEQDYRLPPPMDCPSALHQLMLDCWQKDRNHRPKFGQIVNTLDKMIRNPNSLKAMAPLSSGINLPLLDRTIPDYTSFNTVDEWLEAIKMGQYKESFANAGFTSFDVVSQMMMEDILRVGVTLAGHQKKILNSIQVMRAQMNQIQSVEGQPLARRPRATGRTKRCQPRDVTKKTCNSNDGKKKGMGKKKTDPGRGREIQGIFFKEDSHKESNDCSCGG
Kind of data set: biochemical. The conditions noted are these: read-out: % enzyme activity, 1 μM; Run 1, Run 2.

Another data set addresses T2, IKKa/CHUK (Homo sapiens, UniProt O15111).
T2 sequence (O15111 1-745): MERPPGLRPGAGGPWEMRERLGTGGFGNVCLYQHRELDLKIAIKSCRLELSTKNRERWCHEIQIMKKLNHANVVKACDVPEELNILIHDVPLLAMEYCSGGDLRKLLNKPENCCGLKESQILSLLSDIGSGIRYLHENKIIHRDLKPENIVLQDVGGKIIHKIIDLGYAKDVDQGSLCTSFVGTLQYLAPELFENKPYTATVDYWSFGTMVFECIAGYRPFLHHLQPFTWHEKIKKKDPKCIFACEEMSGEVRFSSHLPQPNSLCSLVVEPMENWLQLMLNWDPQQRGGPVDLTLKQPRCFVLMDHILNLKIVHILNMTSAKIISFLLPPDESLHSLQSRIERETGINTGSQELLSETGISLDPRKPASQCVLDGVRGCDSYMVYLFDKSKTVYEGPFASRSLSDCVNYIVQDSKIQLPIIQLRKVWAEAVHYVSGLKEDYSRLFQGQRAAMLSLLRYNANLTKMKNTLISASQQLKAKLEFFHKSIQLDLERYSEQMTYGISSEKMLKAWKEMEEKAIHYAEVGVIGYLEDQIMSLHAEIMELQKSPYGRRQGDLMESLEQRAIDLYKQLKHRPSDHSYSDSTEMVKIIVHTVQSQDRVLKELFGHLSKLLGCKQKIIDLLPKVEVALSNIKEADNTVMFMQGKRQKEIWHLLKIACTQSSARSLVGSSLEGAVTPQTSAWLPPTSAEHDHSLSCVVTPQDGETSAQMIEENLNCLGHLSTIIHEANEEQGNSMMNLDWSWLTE
The data set is described as follows: biochemical. The conditions noted are these: read-out: % enzyme activity, 1 μM; Run 1, Run 2.

A further data set has as its target T3, PKCmu/PRKD1 (Homo sapiens, UniProt Q15139).
T3 sequence (Q15139 1-912): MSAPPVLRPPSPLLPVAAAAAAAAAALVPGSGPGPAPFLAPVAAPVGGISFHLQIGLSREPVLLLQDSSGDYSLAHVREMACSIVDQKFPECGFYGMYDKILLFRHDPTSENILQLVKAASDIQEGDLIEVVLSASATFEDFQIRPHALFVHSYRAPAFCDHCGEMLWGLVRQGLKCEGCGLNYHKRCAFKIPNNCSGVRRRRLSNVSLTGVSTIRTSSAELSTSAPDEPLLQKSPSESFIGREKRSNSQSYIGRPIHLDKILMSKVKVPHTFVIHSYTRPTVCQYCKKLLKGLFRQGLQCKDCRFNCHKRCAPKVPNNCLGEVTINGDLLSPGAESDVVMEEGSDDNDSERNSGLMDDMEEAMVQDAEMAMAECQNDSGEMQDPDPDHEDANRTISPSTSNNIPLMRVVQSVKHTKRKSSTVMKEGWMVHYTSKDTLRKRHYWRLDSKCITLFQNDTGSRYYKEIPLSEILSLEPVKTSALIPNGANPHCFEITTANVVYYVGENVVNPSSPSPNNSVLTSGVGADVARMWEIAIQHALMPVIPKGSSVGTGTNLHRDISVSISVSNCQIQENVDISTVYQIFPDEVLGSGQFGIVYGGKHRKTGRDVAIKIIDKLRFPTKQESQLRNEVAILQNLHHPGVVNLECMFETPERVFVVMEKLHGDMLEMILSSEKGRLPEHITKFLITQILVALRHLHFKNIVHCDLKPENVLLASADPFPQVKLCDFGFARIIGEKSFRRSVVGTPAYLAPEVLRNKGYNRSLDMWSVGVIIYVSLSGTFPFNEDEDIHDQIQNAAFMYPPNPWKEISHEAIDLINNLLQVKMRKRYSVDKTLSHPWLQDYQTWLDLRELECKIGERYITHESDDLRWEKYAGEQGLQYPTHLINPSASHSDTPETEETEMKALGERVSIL
Kind of data set: biochemical. The conditions noted are these: read-out: % enzyme activity, 1 μM; Run 1, Run 2.

For another data set, the target named is STK16 (Homo sapiens, UniProt O75716). The data set is described as follows: biochemical. Particulars: read-out: % enzyme activity, 1 μM; Run 1, Run 2.
Sequence of STK16 (O75716 whole entry): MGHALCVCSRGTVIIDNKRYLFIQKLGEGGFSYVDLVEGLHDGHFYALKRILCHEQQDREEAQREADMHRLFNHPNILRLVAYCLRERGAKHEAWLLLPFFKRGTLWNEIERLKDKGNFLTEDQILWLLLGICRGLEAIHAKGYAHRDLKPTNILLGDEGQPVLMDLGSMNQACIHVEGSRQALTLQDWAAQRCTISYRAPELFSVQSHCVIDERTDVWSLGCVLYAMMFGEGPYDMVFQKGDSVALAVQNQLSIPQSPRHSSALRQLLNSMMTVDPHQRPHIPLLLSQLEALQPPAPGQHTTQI
The target of a further data set is TRKB (Homo sapiens, UniProt Q16620). Kind of data set: biochemical. The conditions noted are these: read-out: % enzyme activity, 1 μM; Run 1, Run 2.
Sequence of TRKB (Q16620 32-822): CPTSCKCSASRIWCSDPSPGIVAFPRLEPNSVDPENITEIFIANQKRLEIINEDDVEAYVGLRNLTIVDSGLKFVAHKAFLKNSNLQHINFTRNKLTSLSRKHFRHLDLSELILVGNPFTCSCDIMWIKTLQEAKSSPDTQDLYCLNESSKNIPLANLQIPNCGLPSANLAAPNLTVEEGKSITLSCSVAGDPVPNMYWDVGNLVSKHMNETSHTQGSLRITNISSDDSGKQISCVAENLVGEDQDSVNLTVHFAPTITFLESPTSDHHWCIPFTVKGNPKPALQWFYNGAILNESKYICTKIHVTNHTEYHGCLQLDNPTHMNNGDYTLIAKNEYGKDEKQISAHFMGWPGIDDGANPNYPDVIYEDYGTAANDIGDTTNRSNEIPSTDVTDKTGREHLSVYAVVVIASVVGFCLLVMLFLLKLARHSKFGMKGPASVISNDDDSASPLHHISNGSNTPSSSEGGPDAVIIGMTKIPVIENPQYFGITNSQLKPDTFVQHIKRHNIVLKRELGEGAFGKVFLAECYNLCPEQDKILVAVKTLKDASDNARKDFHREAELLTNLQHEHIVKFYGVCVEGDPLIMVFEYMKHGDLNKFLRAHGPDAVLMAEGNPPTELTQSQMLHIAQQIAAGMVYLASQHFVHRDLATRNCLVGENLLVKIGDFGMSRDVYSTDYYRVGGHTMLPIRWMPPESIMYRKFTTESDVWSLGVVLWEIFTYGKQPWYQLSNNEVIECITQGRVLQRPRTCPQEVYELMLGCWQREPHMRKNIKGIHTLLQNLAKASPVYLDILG
Where [1] appears, read: read-out: CYP3A4-Midazolam IC50, substrate midazolam.
The mark [2] stands for this setting: read-out: CYP3A4-Testosterone IC50, substrate testosterone.

Sequence of CYP3A4 (P08684 whole entry): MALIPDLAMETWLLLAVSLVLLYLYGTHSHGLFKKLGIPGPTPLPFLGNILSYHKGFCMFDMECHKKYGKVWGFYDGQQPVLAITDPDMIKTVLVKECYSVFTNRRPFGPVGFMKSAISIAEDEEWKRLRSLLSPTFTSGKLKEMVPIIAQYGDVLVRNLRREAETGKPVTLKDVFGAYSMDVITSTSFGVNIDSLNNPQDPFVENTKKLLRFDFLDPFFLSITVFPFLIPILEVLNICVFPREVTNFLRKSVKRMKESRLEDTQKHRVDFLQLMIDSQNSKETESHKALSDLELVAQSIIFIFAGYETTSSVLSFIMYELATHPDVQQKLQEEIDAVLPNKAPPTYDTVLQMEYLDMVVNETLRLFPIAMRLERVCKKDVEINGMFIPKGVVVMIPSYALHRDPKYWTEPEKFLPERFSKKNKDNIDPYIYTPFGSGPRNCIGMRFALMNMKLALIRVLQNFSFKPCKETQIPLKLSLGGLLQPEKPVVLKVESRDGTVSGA

For the compound `COc1cc(-c2cncc(-c3ccc(N4C[C@@H](C)N(C)[C@@H](C)C4)cc3)c2C)cc(F)c1C(N)=O` [Compound 26c, 2-Fluoro-6-methoxy-4-(4-methyl-5-(4-((3R,5S)-3,4,5-trimethylpiperazin-1-yl)phenyl)pyridin-3-yl)benzamide], the IC50 on CYP3A4 (setting [1]) and on CYP3A4 (setting [2]) was more than 50 µM each time. Besides, the remaining activity at 1 µM on CDK19/cyclin C was 87.1%; at EPHB2, 98.8%; at IKKa/CHUK, 87.4%; at PKCmu/PRKD1, 97.6%; on STK16, 101%; on TRKB, 99%.

With `COc1cc(-c2cncc(-c3ccc(N4CCN(C)CC4)cc3)c2C)cc(F)c1C(N)=O` [Compound 26a, 2-Fluoro-6-methoxy-4-(4-methyl-5-(4-(4-methylpiperazin-1-yl)phenyl)pyridin-3-yl)benzamide], the IC50 at CYP3A4 (setting [1]) and on CYP3A4 (setting [2]) was more than 50 µM each time. Besides, the remaining activity at 1 µM at CDK19/cyclin C turned out to be 79.1%; on EPHB2 it was 93.9%; on IKKa/CHUK, 83.3%; at PKCmu/PRKD1 it was 90.1%; on STK16, 107%; at TRKB, 100%.

The term IC50 denotes the concentration that gives 50% inhibition.
